Assay results published in US20220146526A1, “METHOD FOR EVALUATING SAMPLE, ANALYSIS METHOD, METHOD FOR DETECTING DEGRADED SAMPLE, MARKER FOR DETECTING DEGRADED BLOOD PLASMA SAMPLE, AND MARKER FOR DETECTING DEGRADED SERUM SAMPLE” (SHIMADZU CORPORATION, priority 2019, published 2022).

Legend:
Type in all cases: physicochemical, human
[1] = LC/MS of serum sample: time from centrifugation to isolation (Table K); design: key to Rate of increase or decrease: detection intensity relative to the 30-minute value set as 1; settings: for Increase or decrease / Time when compound is affected: serum sample, LC/MS; for Increase or decrease: detection intensity vs 30 minutes from centrifugation to isolation; for Time when compound is affected: time from centrifugation to isolation, detection intensity changed by 30% or more vs 30 minutes; for Rate of increase or decrease: after 1 hour from centrifugation to isolation, detection intensity relative to 1 at 30 minutes
Description: After standing, the blood sample was subjected to centrifugation under a condition of room temperature, 3500 rpm, and 5 minutes. […] After centrifugation, the blood-collecting vessel was left to stand at room temperature, and the serum was isolated during this time. Here, in order to investigate how the detection intensity of molecules contained in the sample was affected in cases where the time during which the blood-collecting vessel was left at room temperature was set to 1 hour and 6 hours as compared to that in a case where the time was set to 30 minutes, preparations were performed under the respective conditions of 30 minutes, 1 hour, and 6 hours. The obtained serum sample was frozen and stored. Here, in order to investigate how the detection intensity of molecules contained in the sample was affected in cases where freezing and thawing was performed 4 times, 6 times, and 10 times after freezing as compared to that in a case where freezing and thawing was performed 2 times after freezing, freezing and thawing was performed under the respective conditions of 2, 4, 6, and 10 times.
Frozen blood plasma samples and serum samples were subjected to GC/MS or LC/MS. In GC/MS, the blood plasma samples and serum samples were subjected to methoxymation and trimethylsilylation and then introduced to GC-MS.
Analysis column: Discovery HS F5-3 (inner diameter of 2.1 mm, length of 150 mm, film thickness of 3 μm) (Sigma-Aldrich)
Column temperature: 40° C.
(A) 0.1% formic acid (dissolved in water)
(B) 0.1% formic acid (dissolved in acetonitrile)
Flow velocity: 0.25 mL/min
Ionization method: electrospray
Temperature: • Desolvation Line (DL) temperature: 250° C. • Heat block temperature: 400° C. • Interface temperature: 300° C.
Gas flow rate: • Nebulizer gas flow rate: 3.0 L/min • Drying gas flow rate: 10.0 L/min • Heating gas flow rate: 10.0 L/min
Mode: multiple reaction monitoring (MRM)
The rate of increase or decrease in Table K is the value of detection intensity relative to 1 that is the detection intensity in a case where the time from centrifugation to isolation is set to 30 minutes.

[2] = LC/MS of blood plasma sample: time from blood collection to centrifugation (Table D); settings: blood collection to centrifugation; for Rate of increase or decrease: detection intensity relative to 1 at 15 minutes; for Increase or decrease: detection intensity
Summary of the method: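 Detection intensities are expressed relative to samples centrifuged 15 min after collection (=1), measured by electrospray LC/MS in MRM mode (Discovery HS F5-3, 40 °C, formic acid water/acetonitrile gradient at 0.25 mL/min). EDTA blood from a healthy donor was held at 4 °C, centrifuged at 4 °C, 3000 rpm, 15 min, and plasma frozen.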

[3] = LC/MS of serum sample: number of times of freezing and thawing (Table M); design: key to Rate of increase or decrease: detection intensity relative to 1 at 2 freeze-thaw cycles; settings: for Number of times when compound is affected / Increase or decrease: serum sample, LC/MS; for Number of times when compound is affected: detection intensity changed by 30% or more vs 2 times of freezing and thawing; for Increase or decrease: detection intensity vs 2 times of freezing and thawing
Summary of the method: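 Values are detection intensities relative to serum thawed twice, versus 4, 6 or 10 freeze-thaw cycles. Serum came from blood spun at room temperature, 3500 rpm for 5 minutes. Analysis: electrospray LC/MS in MRM mode, Discovery HS F5-3 column, 40° C, 0.1% formic acid in water and acetonitrile.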

[4] = LC/MS of serum sample: time from blood collection to centrifugation (Table J); settings: for Rate of increase or decrease: detection intensity relative to 1 at 15 minutes; for Increase or decrease / Time when compound is affected: serum sample, LC/MS; for Increase or decrease: detection intensity vs 15 minutes from blood collection to centrifugation; for Time when compound is affected: time from blood collection to centrifugation, detection intensity changed by 30% or more vs 15 minutes
Summary of the method: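 Detection intensities are expressed relative to 1 for samples centrifuged 15 min after blood collection; centrifugation was at room temperature, 3500 rpm, 5 min. Frozen serum was run by electrospray LC-MS in MRM mode, with 0.1% formic acid water/acetonitrile at 0.25 mL/min on a 40 °C F5 column.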

[5] = LC/MS of blood plasma sample: number of times of freezing and thawing (Table F); settings: for Rate of increase or decrease: detection intensity relative to 1 at 2 times; for Increase or decrease: detection intensity
Summary of the method: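 Values are detection intensities normalised to 1 for plasma thawed twice, compared against 4, 6 and 10 freeze-thaw cycles. Measured by electrospray LC/MS in MRM mode, formic acid water/acetonitrile mobile phase, column at 40° C. Plasma came from EDTA blood, cooled to 4° C and spun at 3000 rpm for 15 min.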

[6] = GC/MS of blood plasma sample: time from blood collection to centrifugation (Table A); settings: blood collection to centrifugation
Summary of the method: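 Read-out is MRM detection intensity by electron-ionization GC/MS on a BPX5 column after methoxymation and trimethylsilylation, expressed relative to a 15-minute collection-to-centrifugation interval. Plasma was prepared from EDTA blood held at 4° C and spun at 4° C, 3000 rpm for 15 minutes, then frozen.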

[7] = freezing and thawing 4 times vs 2 times
[8] = after 4 hours from blood collection to centrifugation

## N=C(N)NCCC[C@H](NC(CC(=O)O)C(=O)O)C(=O)O (some centres unmarked) [Argininosuccinic acid]
[1]
  Increase or decrease: Increase
  Time when compound is affected: After 1 hour hours
[2]; after 12 hours
  Rate of increase or decrease: 0.61
[2]; after 12 hours vs 15 minutes
  Increase or decrease: Decrease
[3]; 6 times of freezing and thawing, relative to 1 at 2 times, different from individual to individual, first value (increase)
  Rate of increase or decrease: 1.38
[3]; 6 times of freezing and thawing, relative to 1 at 2 times, different from individual to individual, second value (decrease)
  Rate of increase or decrease: 0.49
[3]
  Number of times when compound is affected: 6 times
  Increase or decrease: Different from individual
[4]; after 6 hours from blood collection to centrifugation
  Rate of increase or decrease: 0.65
[4]
  Increase or decrease: Decrease
  Time when compound is affected: After 6 hours
[5]; freezing and thawing 4 times
  Rate of increase or decrease: 2.01
[5]; [7]
  Increase or decrease: Increase

## Nc1nc2c(ncn2[C@@H]2O[C@H](CO)[C@@H](O)[C@H]2O)c(=O)[nH]1 [Guanosine]
[1]
  Rate of increase or decrease: 0.57
  Increase or decrease: Decrease
  Time when compound is affected: After 1 hour hours
[2]; after 6 hours
  Rate of increase or decrease: 1.57
[2]; after 6 hours vs 15 minutes
  Increase or decrease: Increase
[3]; 6 times of freezing and thawing, detection intensity relative to 1 at 2 times
  Rate of increase or decrease: 0.62
[3]
  Number of times when compound is affected: 6 times
  Increase or decrease: Decrease
[4]; [8]
  Rate of increase or decrease: 0.08
[4]
  Increase or decrease: Decrease
  Time when compound is affected: After 4 hours
[5]; freezing and thawing 6 times
  Rate of increase or decrease: 0.58
[5]; freezing and thawing 6 times vs 2 times
  Increase or decrease: Decrease

## O=C(O)CC(O)C(=O)O (centres unmarked) [Malic acid]
[1]
  Rate of increase or decrease: 1.38
  Increase or decrease: Increase
  Time when compound is affected: After 1 hour hours
[2]; after 6 hours
  Rate of increase or decrease: 0.58
[2]; after 6 hours vs 15 minutes
  Increase or decrease: Decrease
[6]; detection intensity relative to 1 at 15 minutes, after 12 hours
  Rate of increase or decrease: 1.36
[6]; detection intensity, after 12 hours vs 15 minutes
  Increase or decrease: Increase
[3]; 10 times of freezing and thawing, detection intensity relative to 1 at 2 times
  Rate of increase or decrease: 0.64
[3]
  Number of times when compound is affected: 10 times
  Increase or decrease: Decrease
[4]; [8]
  Rate of increase or decrease: 1.33
[4]
  Increase or decrease: Increase
  Time when compound is affected: After 4 hours
[5]; freezing and thawing 4 times
  Rate of increase or decrease: 2.37
[5]; [7]
  Increase or decrease: Increase
